Values quoted from earlier work as cited in patent US7326683B2, “Treatment of membrane-associated diseases and disorders using lantibiotic containing compositions” (Molichem Medicines, Inc., priority 2004, dated 2008).

Experiments:
[1] = aspirin used after the sentinel event, atherosclerotic heart disease (ASHD)
[2] = tested on: clatharin-coated vesicle; conditions: clatharin-coated vesicle acidification; Stone et al., J. Biol. Chem. 259: 2701-2703 (1984)

Row | Compound | decrease of risk of MI [1] | inhibition of the proton translocation facilitated by chloride translocation [2]
1 | CC(=O)Oc1ccccc1C(=O)O [aspirin] | approximately 50% | –
2 | duramycin | – | up to 50%
